Measured values from patent publication US20230017045A1, “PYRIDINE AND PYRIMIDINE CARBOXYLATE HERBICIDES AND METHODS OF USE THEREOF” (Dow AgroSciences LLC, priority 2017, published 2023).
Where two headings read alike, the source gives them in different places.

Tested on: test plant species
Assay: Post-emergent herbicidal activity test (greenhouse, foliar spray, visual growth reduction)
Type: in vivo
Details: post-emergence, 336 h, 140 g ai/ha
Summary of the method: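 Plants grown in greenhouse (15 h photoperiod, 23-29° C day/22-28° C night) to first or second true leaf stage were sprayed overhead with compound in acetone/water/isopropanol/DMSO/crop oil/X-77 carrier at 187 L/ha. Injury was scored visually after 14 d on a 0-100% scale versus solvent-blank and untreated controls.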

[1] = ECHCG: barnyardgrass (Echinochloa crus-galli), 14 days after application, read-out: Visual Growth Reduction (%) 14 Days After Application, ECHCG
[2] = IPOHE: ivy-leaf morning glory (Ipomoea hederacea), 14 days after application, read-out: Visual Growth Reduction (%) 14 Days After Application, IPOHE
[3] = KCHSC: kochia (Bassia scoparia), 14 days after application, read-out: Visual Growth Reduction (%) 14 Days After Application, KCHSC
[4] = ORYSA: rice (Oryza sativa), 14 days after application, read-out: Visual Growth Reduction (%) 14 Days After Application, ORYSA
[5] = SETFA: giant foxtail (Setaria faberi), 14 days after application, read-out: Visual Growth Reduction (%) 14 Days After Application, SETFA
[6] = SORVU: grain sorghum (Sorghum vulgare), 14 days after application, read-out: Visual Growth Reduction (%) 14 Days After Application, SORVU
[7] = STEME: common chickweed (Stellaria media), 14 days after application, read-out: Visual Growth Reduction (%) 14 Days After Application, STEME
[8] = TRZAS: wheat, spring (Triticum aestivum), 14 days after application, read-out: Visual Growth Reduction (%) 14 Days After Application, TRZAS
[9] = blackgrass (Alopecurus myosuroides), 14 Days After Application, read-out: Visual Growth Reduction (%) ALOMY
[10] = canada thistle (Cirsium arvense), 14 Days After Application, read-out: Visual Growth Reduction (%) CIRAR
[11] = crabgrass (Digitaria sanguinalis), 14 Days After Application, read-out: Visual Growth Reduction (%) DIGSA
[12] = lambsquarters (Chenopodium album), 14 Days After Application, read-out: Visual Growth Reduction (%) CHEAL
[13] = redroot pigweed (Amaranthus retroflexus), 14 Days After Application, read-out: Visual Growth Reduction (%) AMARE
[14] = wild oat (Avena fatua), 14 Days After Application, read-out: Visual Growth Reduction (%) AVEFA
[15] = yellow nutsedge (Cyperus esculentus), 14 Days After Application, read-out: Visual Growth Reduction (%) CYPES

Compound	pest or weed control at 140 g/ha [1] [%]	pest or weed control at 140 g/ha [2] [%]	pest or weed control at 140 g/ha [3] [%]	pest or weed control at 140 g/ha [4] [%]	pest or weed control at 140 g/ha [5] [%]	pest or weed control at 140 g/ha [6] [%]	pest or weed control at 140 g/ha [7] [%]	pest or weed control at 140 g/ha [8] [%]	pest or weed control at 140 g/ha [9] [%]	pest or weed control at 140 g/ha [10] [%]	pest or weed control at 140 g/ha [11] [%]	pest or weed control at 140 g/ha [12] [%]	pest or weed control at 140 g/ha [13] [%]	pest or weed control at 140 g/ha [14] [%]	pest or weed control at 140 g/ha [15] [%]
COc1c(Cl)ccc(-c2ccc(Cl)c(C(=O)OCc3ccccc3)n2)c1F [F299, Benzyl 3-chloro-6-(4-chloro-2-fluoro-3-methoxyphenyl) picolinate]	0 to 29	60 to 74	75 to 84	0 to 29	0 to 29	0 to 29	60 to 74	0 to 29	0 to 29	75 to 84	0 to 29	75 to 84	60 to 74	0 to 29	75 to 84
COc1c(Cl)cc(Cl)c(-c2nc(C(=O)OCc3ccccc3)c(Cl)cc2F)c1F [F300, Benzyl 3-chloro-6-(4,6-dichloro-2-fluoro-3-methoxyphenyl)-5-fluoropicolinate]	0 to 29	60 to 74	30 to 44	0 to 29	0 to 29	0 to 29	0 to 29	0 to 29	0 to 29	45 to 59	0 to 29	75 to 84	0 to 29	0 to 29	0 to 29
COC(=O)c1nc(-c2c(Cl)cccc2OC)c(F)cc1Cl [F301, Methyl 3-chloro-6-(2-chloro-6-methoxyphenyl)-5-fluoropicolinate]	0 to 29	0 to 29	0 to 29	0 to 29	0 to 29	0 to 29	0 to 29	0 to 29	0 to 29	0 to 29	0 to 29	0 to 29	0 to 29	0 to 29	0 to 29
C=Cc1cc(-c2nc(C(=O)OC)c(Cl)cc2F)c(Cl)cc1C(F)(F)F [F303, Methyl 3-chloro-6-(2-chloro-4-(trifluoromethyl)-5-vinylphenyl)-5-fluoropicolinate]	0 to 29	95 to 100	0 to 29	0 to 29	0 to 29	0 to 29	0 to 29	0 to 29	0 to 29	0 to 29	0 to 29	75 to 84	0 to 29	0 to 29	0 to 29
COC(=O)c1nc(-c2ccc(C(F)(F)F)c(Cl)c2)ccc1Cl [F304, Methyl 3-chloro-6-(3-chloro-4-(trifluoromethyl)phenyl)picolinate]	0 to 29	95 to 100	0 to 29	0 to 29	0 to 29	0 to 29	0 to 29	0 to 29	0 to 29	0 to 29	30 to 44	0 to 29	0 to 29	0 to 29	0 to 29
COC(=O)c1nc(-c2ccc(C(F)(F)F)c(Cl)c2)c(F)cc1Cl [F305, Methyl 3-chloro-6-(3-chloro-4-(trifluoromethyl)phenyl)-5-fluoropicolinate]	0 to 29	95 to 100	0 to 29	0 to 29	0 to 29	75 to 84	0 to 29	0 to 29	0 to 29	0 to 29	85 to 94	45 to 59	30 to 44	0 to 29	45 to 59
COC(=O)c1nc(-c2ccc(C(F)(F)F)c(F)c2)ccc1Cl [F306, Methyl 3-chloro-6-(3-fluoro-4-(trifluoromethyl)phenyl)picolinate]	0 to 29	95 to 100	0 to 29	0 to 29	0 to 29	60 to 74	0 to 29	0 to 29	0 to 29	0 to 29	75 to 84	0 to 29	30 to 44	0 to 29	45 to 59
COC(=O)c1nc(-c2ccc(C(F)(F)F)c(F)c2)c(F)cc1Cl [F307, Methyl 3-chloro-5-fluoro-6-(3-fluoro-4-(trifluoromethyl)phenyl) picolinate]	0 to 29	95 to 100	0 to 29	0 to 29	0 to 29	85 to 94	0 to 29	0 to 29	0 to 29	0 to 29	85 to 94	75 to 84	75 to 84	0 to 29	0 to 29
COC(=O)c1nc(-c2ccc(C(F)(F)F)c(C)c2)ccc1Cl [F308, Methyl 3-chloro-6-(3-methyl-4-(trifluoromethyl)phenyl)picolinate]	0 to 29	0 to 29	0 to 29	0 to 29	0 to 29	0 to 29	0 to 29	0 to 29	0 to 29	0 to 29	0 to 29	0 to 29	45 to 59	0 to 29	0 to 29
COC(=O)c1nc(-c2ccc(C(F)(F)F)c(C)c2)c(F)cc1Cl [F309, Methyl 3-chloro-5-fluoro-6-(3-methyl-4-(trifluoromethyl)phenyl)picolinate]	0 to 29	0 to 29	0 to 29	0 to 29	0 to 29	0 to 29	0 to 29	0 to 29	0 to 29	0 to 29	0 to 29	45 to 59	45 to 59	0 to 29	0 to 29
COC(=O)c1nc(-c2ccc(C(F)(F)F)c(F)c2F)c(F)cc1Cl [F310, Methyl 3-chloro-6-(2,3-difluoro-4-(trifluoromethyl)phenyl)-5-fluoropicolinate]	60 to 74	95 to 100	45 to 59	0 to 29	85 to 94	95 to 100	0 to 29	60 to 74	45 to 59	95 to 100	95 to 100	95 to 100	95 to 100	60 to 74	75 to 84
